Test results published in paper PMC7352342, “Inhibition of Patched Drug Efflux Increases Vemurafenib Effectiveness against Resistant Braf^V600E Melanoma” (Cancers, 2020).

Experiments:
[1] = Cytotoxicity assay (neutral red), A375 cells; assay type: cell-based, human; conditions: human, A375 melanoma cells, A375; 24 or 48 h; read-out: sPAH-IC50 (cytotoxicity of sPAH alone)
Description: (§1) Human melanoma cell lines A375 and MeWo were purchased from ATCC, and cultured in DMEM medium supplemented with 10% fetal bovine serum and penicillin/streptomycin (Invitrogen) at 37 °C in a 5% CO2/95% water-saturated air atmosphere. Melanoma cell lines SKMEL 28, SKMEL V3, WM9S, and WM9R were provided by Robert Ballotti (C3M, Nice, France). MeWo-dxrR cells were obtained by adding increasing concentrations of doxorubicin, up to 0.2 µM, in the culture medium over 6 months. These cells were grown in medium supplemented with 0.2 µM dxr. WM9R cells were obtained by adding increasing concentrations of vemurafenib, up to 5 µM, in the culture medium over 6 months. These cells were grown in medium supplemented with 5 µM vemurafenib. HEK cells were grown in 75 mm tissue culture dishes (Falcon, Franklin Lakes, NJ, USA) in Dulbecco’s modified Eagle’s medium (Gibco, Life Technologies, Saint Aubin, France) supplemented with 10% fetal calf serum (Hyclone, Thermo Fisher Scientific GMBH, Ulm, Germany) and 1% penicillin/streptomycin (Gibco, Life Technologies, Saint Aubin, France) in a humidified incubator at 37 °C (5% CO2).
(§2) Cells were seeded in 96-well plates in triplicate and grown in medium to achieve 70 to 80% confluence. Medium was then removed and replaced with 100 µL/well of complete medium containing PAH or DMSO as a control. After 2 h, 100 µL of complete medium containing serial dilutions of dxr, cisplatin or vemurafenib were added. Plates were incubated at 37 °C and 5% CO2. After 24 or 48 h, cells were incubated for 3 h at 37 °C with 100 µL/well neutral red (NR) solution (50 µg/mL in medium) following the manufacturer’s protocol. Measurements were made in microplate readers (Multiskan Go Microplate Spectrophotometer from Thermo Scientific).

[2] = system: A375 cells; test: Cytotoxicity assay (neutral red), A375 cells; assay type: cell-based, human; conditions: A375
Description: as §1, §2

[3] = Cytotoxicity assay (neutral red), WM9R cells; assay type: cell-based; conditions: human, WM9R melanoma cells (vemurafenib-resistant); read-out: sPAH-IC50 (cytotoxicity of sPAH alone)
Description: as §1
(§3) Cells were seeded in 96-well plates in triplicate and grown in medium to achieve 70 to 80% confluence. […] Measurements were made in microplate readers (Multiskan Go Microplate Spectrophotometer from Thermo Scientific).

[4] = system: WM9R cells; test: Cytotoxicity assay (neutral red), WM9R cells; assay type: cell-based; conditions: WM9R; sPAH 20 µM; 24 h
Description: as §1, §3

[5] = system: MeWo cells; test: Dxr efflux measurement by fluorescence microscopy, MeWo cells; assay type: cell-based, human; conditions: 30 min in efflux buffer
Description: Dxr efflux measurements were carried out as previously described. Cells were seeded on coverslips in 24-well plates and allowed to grow to 80% confluence. Coverslips were incubated at 37 °C and 5% CO2 with 10 μM dxr in physiological buffer (140 mM NaCl, 5 mM KCl, 1 mM CaCl2, 1 mM MgSO4, 5 mM glucose, 20 mM HEPES, pH 7.4). After 2 h, three coverslips were immediately fixed with 4% PFA for the dxr loading control, rapidly washed with PBS and mounted in SlowFade Gold antifade reagent with DAPI (Invitrogen). The other coverslips (triplicated per condition) were incubated with physiological buffer supplemented with DMSO or 10 µM of PAH under gentle shaking at room temperature and protected from light. After 30 min, coverslips were fixed with 4% PFA, washed, and mounted as described above. For competition on dxr loading, A375 and WM9R cells seeded on coverslips were incubated for 1 h at 37 °C and 5% CO2 with 10 μM dxr in physiological buffer in the presence or the absence of 100 µM vemurafenib. Images were acquired with a Zeiss Axioplan 2 fluorescence microscope coupled to a digital charge-coupled device camera using a 40×/1.3 Plan NeoFluar objective and filters for Alexa 594. Dxr fluorescence was quantified using ImageJ software. Sampling of cells was performed randomly. About 100 cells (from three wells) were scored per condition per experiment.

[6] = system: chick embryos; test: sPAH toxicity on chick embryos; assay type: in vivo; conditions: 10 days
Description: These experiments were performed by the company INOVOTION (La Tronche, France). […] At this time (E9), an access point to the chorioallantoic membrane (CAM) was made by drilling a small hole through the eggshell into the air sac and a 1 cm^2 window was cut in the eggshell above the CAM. Twenty-one eggs were used for each condition. […] MeWo cells cultivated in DMEM medium with 10% FBS (and 1% penicillin/streptomycin) were detached with trypsin, washed with complete medium, labeled, and suspended in PBS. An inoculum of 3 × 10^6 cells was added onto the CAM of each egg (E9). Eggs were then randomized in 4 groups. The chick embryos were then treated every two days (E11, E13, E15, E17) for 10 days in total, by adding 100 µL of vehicle (1% DMSO in PBS) as a negative control or 100 µL of sPAH at 3 different doses onto the CAM. The number of dead embryos evaluates the toxicity after 10 days of the treatment, as does the observation of 22 abnormality checkpoints in surviving embryos.

COc1cc(C)c(CC/C(C)=C/Cc2cc(O)ccc2O)c(C)c1C [sPAH, Panicein A hydroquinone]
IC50 [1]: ~40 µM | IC50 ([2]; 24 or 48 h, read-out: sPAH-IC50 (cytotoxicity of sPAH alone)): 38.3 ± 6.8 µM | sensitivity of cells to vemurafenib in the presence of sPAH ([2]; 24 h, sPAH between 10 and 20 µM): significantly increased | IC50 of cisplatin in the presence of sPAH ([2]; sPAH 20 µM vs DMSO (Figure S2)): significantly decreased | IC50 [3]: 41 ± 6.2 µM | change of the IC50 of vemurafenib in the presence of sPAH [4]: decrease by a factor of ten | inhibition of dxr efflux, synthetic compared with natural PAH [5]: as efficiently as the natural PAH | abnormalities in surviving embryos (22 checkpoints) ([6]; 100 µM to 1 mM): no abnormalities were observed | acute toxicity ([6]; up to the highest dose of 1 mM): No acute toxicity was observed
